Experimental findings from ChEMBL document CHEMBL1201862, “PubChem BioAssay data set” (2004) are described below.

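The compound was tested at five concentrations on cells cultured in 96-well plates, with a 48-hour exposure period. GI50 = concentration required for 50% inhibition of growth.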 Calls of active or inactive are those of the source. No stated cut-off is given here; in the data, active = GI50 up to about 1.1 µM and inactive = higher. Some results are limits rather than exact numbers.

Among the test systems are A498; U-251; DU-145; T47D; MCF7; NCI/ADR-RES; SK-MEL-5; UO-31; CCRF-CEM; HCT-116; Malme-3M; KM12; UACC-62; SR; BT-549; SW-620; SF-268; MOLT-4; NCI-H460; HL-60.
Common to all, as to test: NCI-60 cell line screen, 48 h

`COc1cc(S(=O)(=O)Nc2nc(-c3ccc(N4C(=O)/C(=C/C=C/c5ccccc5)N=C4c4ccccc4)cc3)cs2)ccc1Cl`: the GI50 in the experiment on A498 was > 100 µM (inactive); in the experiment on U-251, 53.1 µM (inactive); in the experiment with DU-145, > 100 µM (inactive); in the experiment with T47D, 48.1 µM (inactive); with MCF7, 43 µM (inactive); in the experiment on NCI/ADR-RES it was > 100 µM (inactive). In addition, the GI50 was 53 µM (inactive) in the experiment with SK-MEL-5; > 100 µM (inactive) in the experiment with UO-31; 58.7 µM (inactive) in the experiment with CCRF-CEM; 78.9 µM (inactive) in the experiment on HCT-116; 29.2 µM (inactive) with Malme-3M; > 100 µM (inactive) in the experiment with KM12. The GI50 in the experiment on UACC-62 is 35 µM (inactive); in the experiment on SR, 58.3 µM (inactive); with BT-549, 45 µM (inactive); in the experiment with SW-620, > 100 µM (inactive); in the experiment on SF-268 it was 28.9 µM (inactive); in the experiment on MOLT-4 it was 69 µM (inactive). The values for the GI50 in the experiment on NCI-H460 and in the experiment with HL-60 were > 100 µM (inactive) and 60.7 µM (inactive), respectively.

`CN(Cc1cnc2nc(N)nc(N)c2n1)c1ccc(C(=O)N[C@@H](CCC(=O)O)C(=O)O)cc1` [METHOTREXATE]: the GI50 with A498 is 4.78 µM (inactive); with U-251, 0.0723 µM (active); in the experiment with DU-145, 0.0476 µM (active); in the experiment on T47D, 28 µM (inactive); with MCF7, 0.0486 µM (active); with NCI/ADR-RES, 0.0929 µM (active). Besides, the GI50 with SK-MEL-5 is 0.09 µM (active); with UO-31, 0.227 µM (active); in the experiment with CCRF-CEM it was 0.0296 µM (active); with HCT-116, 0.0347 µM (active); in the experiment on Malme-3M, 2.36 µM (inactive); with KM12 it was 0.0493 µM (active). In addition, the GI50 in the experiment with UACC-62 was 0.0286 µM (active); with SR it was 0.0373 µM (active); with BT-549, 69.5 µM (inactive); in the experiment with SW-620 it was 0.0388 µM (active); in the experiment on SF-268, 0.0409 µM (active); with MOLT-4, 0.0326 µM (active). The GI50 in the experiment with NCI-H460 is 0.028 µM (active); in the experiment with HL-60, 0.043 µM (active).

Turning to `CCCCCCCCCC1(N=[N+]=[N-])C(=O)c2ccccc2N(C)C1=O` (stereo not given), the GI50 with A498 was 20.8 µM (inactive); in the experiment on U-251, 2.22 µM (inactive); with DU-145 it was 28.7 µM (inactive); in the experiment on T47D it was 3.4 µM (inactive); in the experiment with MCF7 it was 29.9 µM (inactive); in the experiment on NCI/ADR-RES, 26.7 µM (inactive). In addition, the GI50 in the experiment with SK-MEL-5 was 13 µM (inactive); in the experiment on UO-31, 19.4 µM (inactive); in the experiment with CCRF-CEM, 16.8 µM (inactive); in the experiment with HCT-116, 21.1 µM (inactive); in the experiment with Malme-3M, 28.1 µM (inactive); with KM12 it was 48 µM (inactive). The GI50 in the experiment with UACC-62 was 17.3 µM (inactive); in the experiment on SR, 35.4 µM (inactive); in the experiment with BT-549 it was 28.1 µM (inactive); in the experiment on SW-620, 19.3 µM (inactive); in the experiment on SF-268, 40 µM (inactive); in the experiment with MOLT-4, 7.13 µM (inactive). Moreover, the GI50 is 37.2 µM (inactive) with NCI-H460 and > 100 µM (inactive) in the experiment with HL-60.

On to `COc1cc2c(/C=C3/C(=O)Nc4cc(C)c(O)cc43)c(Cl)[nH]c2cc1C`, for which the GI50 in the experiment on A498 was 13.9 µM (inactive); in the experiment with U-251 it was 3.9 µM (inactive); in the experiment with DU-145, 2.75 µM (inactive); with T47D, 3.16 µM (inactive); in the experiment with MCF7, 1.8 µM (inactive); in the experiment with NCI/ADR-RES, 2.88 µM (inactive). For the same compound, the GI50 in the experiment on SK-MEL-5 is 2.31 µM (inactive); with UO-31, 4.31 µM (inactive); with CCRF-CEM it was 0.552 µM (active); in the experiment with HCT-116, 2.64 µM (inactive); with Malme-3M, 0.407 µM (active); with KM12, 1.85 µM (inactive). Also, the GI50 in the experiment on UACC-62 was 1.96 µM (inactive); in the experiment with SR, 0.376 µM (active); in the experiment with BT-549, 6.75 µM (inactive); with SW-620 it was 2.83 µM (inactive); in the experiment with SF-268, 6.12 µM (inactive); in the experiment on MOLT-4, 0.148 µM (active). The results for the GI50 in the experiment with NCI-H460 and in the experiment on HL-60 were 2.51 µM (inactive) and 1.86 µM (inactive), respectively.

Take `O=c1[nH]c2c(Nc3c4ccccc4nc4ccccc34)c([N+](=O)[O-])c(Nc3c4ccccc4nc4ccccc34)c([N+](=O)[O-])c2[nH]1`: the GI50 is 1.32 µM (inactive) with A498; 2.33 µM (inactive) with U-251; 2.67 µM (inactive) in the experiment on DU-145; 3.29 µM (inactive) in the experiment on T47D; 1.53 µM (inactive) in the experiment on MCF7; 1.01 µM (active) with NCI/ADR-RES. Also, the GI50 with SK-MEL-5 was 2.11 µM (inactive); in the experiment on UO-31, 1.24 µM (inactive); in the experiment with CCRF-CEM, 0.855 µM (active); in the experiment with HCT-116 it was 0.687 µM (active); in the experiment with Malme-3M it was 1.57 µM (inactive); in the experiment on KM12, 2.14 µM (inactive). The GI50 in the experiment with UACC-62 was 1.39 µM (inactive); with SR, 0.741 µM (active); in the experiment with BT-549 it was 3.51 µM (inactive); in the experiment with SW-620, 1.17 µM (inactive); with SF-268, 1.98 µM (inactive); in the experiment with MOLT-4, 0.38 µM (active). Besides, the results for the GI50 in the experiment on NCI-H460 and in the experiment on HL-60 were 1.33 µM (inactive) and 2.67 µM (inactive), respectively.

As to `Cc1cc(S(=O)(=O)/N=C(\NN)NNc2cccc(C(F)(F)F)n2)c(S)cc1Cl`, the GI50 was 22.1 µM (inactive) in the experiment on A498; 16.8 µM (inactive) in the experiment on U-251; 18.5 µM (inactive) in the experiment with DU-145; 17.8 µM (inactive) in the experiment on T47D; > 10 µM (inactive) in the experiment with MCF7; 19.8 µM (inactive) with NCI/ADR-RES. Also, the GI50 in the experiment with SK-MEL-5 was 20 µM (inactive); with UO-31 it was 18.9 µM (inactive); with CCRF-CEM, 23.3 µM (inactive); in the experiment on HCT-116, 21.3 µM (inactive); in the experiment with Malme-3M it was 19.1 µM (inactive); in the experiment with KM12, 16.9 µM (inactive). For the same compound, the GI50 in the experiment with UACC-62 was 16.7 µM (inactive); in the experiment on SR, 21.3 µM (inactive); in the experiment with BT-549 it was 13.3 µM (inactive); in the experiment on SW-620, 18.5 µM (inactive); with SF-268, 21.4 µM (inactive); in the experiment with MOLT-4 it was 19.2 µM (inactive). Further, the values for the GI50 with NCI-H460 and in the experiment with HL-60 were 26.9 µM (inactive) and 27.4 µM (inactive), respectively.

Consider `Cc1c(O)ccc2c(O)c(NC(=O)c3ccc4c(c3)CCC(C)(C)O4)c(=O)oc12` [CYCLONOVOBIOCIC ACID], for which the GI50 in the experiment with A498 is 45.8 µM (inactive); in the experiment on U-251, > 100 µM (inactive); in the experiment with DU-145, > 100 µM (inactive); in the experiment on T47D, > 100 µM (inactive); with MCF7 it was > 100 µM (inactive); with NCI/ADR-RES it was > 100 µM (inactive). Moreover, the GI50 with SK-MEL-5, in the experiment on UO-31, in the experiment with CCRF-CEM, in the experiment with HCT-116, with Malme-3M and with KM12 was > 100 µM (inactive) throughout. Moreover, the GI50 with UACC-62 was 90.6 µM (inactive); in the experiment on SR, > 100 µM (inactive); with BT-549, > 100 µM (inactive); in the experiment on SW-620, > 100 µM (inactive); with SF-268 it was > 100 µM (inactive); in the experiment with MOLT-4 it was > 100 µM (inactive). Besides, the GI50 with NCI-H460 and in the experiment with HL-60 was > 100 µM (inactive) throughout.

`O=C(CC(O)(C(F)(F)F)C(F)(F)F)c1cc(CC(=O)C(O)(C(F)(F)F)C(F)(F)F)cc(CC(=O)C(O)(C(F)(F)F)C(F)(F)F)c1`: the GI50 in the experiment on A498 was 1.88 µM (inactive); in the experiment with U-251, 1.54 µM (inactive); with DU-145, 1.97 µM (inactive); in the experiment with T47D, 0.419 µM (active); with MCF7 it was 1.86 µM (inactive); with NCI/ADR-RES, 1.85 µM (inactive). The GI50 in the experiment on SK-MEL-5 is 1.57 µM (inactive); in the experiment with UO-31, 1.25 µM (inactive); in the experiment on CCRF-CEM, > 10 µM (inactive); in the experiment with HCT-116 it was 0.76 µM (active); in the experiment with Malme-3M, 2.01 µM (inactive); in the experiment on KM12 it was 0.512 µM (active). Further, the GI50 was 1.11 µM (active) in the experiment on UACC-62; 6.78 µM (inactive) in the experiment on SR; 1.71 µM (inactive) in the experiment on BT-549; 2.06 µM (inactive) in the experiment with SW-620; 2.67 µM (inactive) in the experiment on SF-268; 4.47 µM (inactive) in the experiment on MOLT-4. Further, the GI50 in the experiment on NCI-H460 was 0.454 µM (active); with HL-60 it was > 10 µM (inactive).

Consider `O=C1c2ccccc2C(=O)N1CCCC(=O)n1cc(F)c(=O)[nH]c1=O`, for which the GI50 in the experiment on A498 was 4.69 µM (inactive); in the experiment with U-251, > 100 µM (inactive); in the experiment on DU-145, 10.1 µM (inactive); in the experiment on T47D, > 33.7 µM (inactive); with MCF7, 6.21 µM (inactive); with NCI/ADR-RES, 7.98 µM (inactive). The GI50 in the experiment with SK-MEL-5 was 12.3 µM (inactive); in the experiment on UO-31, 11.4 µM (inactive); in the experiment on CCRF-CEM, 18.6 µM (inactive); in the experiment on HCT-116 it was 6.24 µM (inactive); with Malme-3M it was 27.9 µM (inactive); with KM12, 6.73 µM (inactive). Further, the GI50 in the experiment with UACC-62 is 23.6 µM (inactive); in the experiment on SR, 5.53 µM (inactive); in the experiment on BT-549, > 100 µM (inactive); with SW-620 it was > 72.6 µM (inactive); in the experiment on SF-268, 69.2 µM (inactive); in the experiment on MOLT-4, 35.4 µM (inactive). For the same compound, the GI50 was 2.68 µM (inactive) in the experiment on NCI-H460 and 7.78 µM (inactive) with HL-60.

With `CC1=CC(=O)[C@@H](O)[C@]2(C)[C@H]3[C@@]4(O)OC[C@]35[C@H]([C@@H](C)[C@H]4O)[C@@H](OC(=O)C(C)(C)CO)C(=O)O[C@@H]5C[C@@H]12`, the GI50 is 1.42 µM (inactive) in the experiment on A498; 0.0281 µM (active) with U-251; 0.305 µM (active) with DU-145; 0.0209 µM (active) with T47D; < 0.0189 µM (active) in the experiment on MCF7; 2.32 µM (inactive) in the experiment on NCI/ADR-RES. Besides, the GI50 in the experiment on SK-MEL-5 was < 0.0204 µM (active); in the experiment on UO-31 it was 0.316 µM (active); with CCRF-CEM it was 0.0362 µM (active); in the experiment on HCT-116, < 0.0199 µM (active); with Malme-3M, < 0.01 µM (active); with KM12 it was < 0.0271 µM (active). The GI50 is 0.0838 µM (active) in the experiment on UACC-62; 0.0155 µM (active) in the experiment with SR; 0.0428 µM (active) with BT-549; 0.229 µM (active) with SW-620; < 0.0379 µM (active) with SF-268; 0.0178 µM (active) in the experiment with MOLT-4. The GI50 is 0.0568 µM (active) with NCI-H460 and 0.0243 µM (active) in the experiment with HL-60.
